Data from patent US20080033046A1, “Treatment of myocardial infarction with 11HSD1 inhibitors” (University of Edinburgh, priority 2004, published 2008).
Entries after “also recorded” stand apart in the source; their conditions may differ.

Key:
mouse aortic rings [1] = experiment: Angiogenesis in mouse aortic rings embedded in Matrigel (new vessel count); format: cell-based; settings: for effect on the angiostatic effect of corticosterone / direct effect on angiogenesis in aortic rings (drug alone): drug 10^−6 M; for effect on the angiostatic effect of corticosterone: corticosterone 600 nM; for direct effect on angiogenesis in aortic rings (drug alone): no glucocorticoid
Description: Mice were killed humanely and thoracic aortae were removed, washed in serum free MCDB 131 medium (Invitrogen, UK), cleaned of periadventitial tissue and divided into 1-3 mm rings.
To quantify angiogenesis aortic rings were embedded in 200 μl of steroid free Matrigel (Becton Dickinson, UK) and incubated at 37° C. in serum free MCDB 131, with heparin, ascorbic acid, and GA1000 (Cambrex Biosciences, UK) in the presence and absence of: corticosterone (3 nM, 30 nM, 300 nM, 600 nM); 11-dehydrocorticosterone (300 nM, 60 nM); the glucocorticoid receptor antagonist, RU38486 (10^−6M)^59, the mineralocorticoid receptor antagonist, spironolactone (10^−6 M)^60; and/or the […] 11βHSD inhibitor, carbenoxolone (10^−4-10^−6M)^31. All drugs (Sigma-Aldrich, UK) were dissolved in ethanol and diluted in aqueous solution; final ethanol concentration 1-3% v/v. Media were changed every 48 hours. Experiments were performed in triplicate. In initial experiments, new vessels were counted daily using light microscopy (FIG. 1). From these studies day 7 was selected as the appropriate time point to examine the effects of glucocorticoids (FIG. 1c).
To confirm the nature of apparent new vessels, endothelial cells were identified by uptake of fluorescent-labelled acetylated low-density lipoprotein (DiI-Ac-LDL)(Biogenesis, Dorset UK) FIG. 1b).

[2] = test system: subcutaneous sponge implants in mice; experiment: Subcutaneous sponge implant assay (vessel density, Chalkley counts); format: in vivo, mouse; settings: 20 days; for effect of steroid-impregnated sponge on angiogenesis in vivo: 2 mg steroid in silastic insert
Description: (§1) Mice were anaesthetized with halothane and a sterilised sponge cylinder (0.5 cm×1 cm) (Caligen-Foam Ltd., UK) was implanted subcutaneously on each flank. Sponges contained a silastic insert (Silastic 20 medical grade, Dow Corning Corporation, USA) impregnated with vehicle, 2 mg of cortisol or cortisone, or 5 mg of RU38486. […] Such inserts release their impregnated compounds in vivo at a constant rate for 3 weeks. Human steroids (cortisol and cortisone, equivalent to corticosterone and 11-dehydrocorticosterone) were used to allow distinction from endogenous steroids. In separate experiments (not shown) angiogenesis in placebo-impregnated sponges was not altered by the presence or absence of a contralateral steroid-treated sponge.
(§2) Twenty days following implantation, mice were decapitated, sponges excised and inserts removed. Sponges were bisected; one half was fixed in 10% formalin and embedded in paraffin wax. Sections (8 μm) were stained with haematoxylin and eosin (H&E). The second half of the sponge was weighed, homogenised in 2 ml sterile phosphate buffered saline at 4° C. and centrifuged (2000 g; 30 minutes). Steroids were extracted from the supernatant using ethyl acetate and cortisol quantified using a specific radioimmunoassay (Amersham Pharmacia Biotech, UK). Sponge vessel density was determined by using the mean of triplicate Chalkley counts on 2 sections per sponge.

mouse aortic rings [3] = experiment: Angiogenesis in mouse aortic rings embedded in Matrigel (new vessel count); format: cell-based; settings: wild type rings, drug 10^−6 M, 11-dehydrocorticosterone 600 nM
in vivo = settings: mouse; for concentration at 20 days: Cortisol level
Description: as §1, §2

[4] = aortic rings from 11βHSD-1 −/− mice, glucocorticoid 600 nM, compared with wild type
[5] = wild type C57B16 aortic rings, 7-day incubation, physiological concentrations (up to 600 nM)
[6] = wild type rings, listed as Carbenoxolone

For `C[C@]12CC(=O)[C@H]3[C@@H](CCC4=CC(=O)CC[C@@]43C)[C@@H]1CC[C@@H]2C(=O)CO` [11-dehydrocorticosterone], the “effect of glucocorticoid on angiogenesis in aortic rings” value (shortened to “effect of glucocorticoid”) (mouse aortic rings [1]; [4]) was “did not inhibit angiogenesis” and the “effect of glucocorticoid” value (mouse aortic rings [1]; [5]) was “inhibited angiogenesis; also recorded: angiostatic effect”.

In the case of `CC#C[C@]1(O)CC[C@H]2[C@@H]3CCC4=CC(=O)CCC4=C3[C@@H](c3ccc(N(C)C)cc3)C[C@@]21C` [RU38486], the “new vessel formation in RU38486 impregnated sponges versus contralateral controls” value ([2]; wild type C57B16 mice, 5 mg in silastic insert) is reported as “increased; also recorded: greater”, the “effect on the angiostatic effect of 11-dehydrocorticosterone” value (“effect … of 11-dehydrocorticosterone” for short) (mouse aortic rings [3]) is reported as “prevented” and the “effect on the angiostatic effect of corticosterone” value (“effect … of corticosterone” for short) (mouse aortic rings [1]; wild type rings) is reported as “prevented”. For the same molecule, the “direct effect on angiogenesis in aortic rings (drug alone)” value (from here on “direct effect on angiogenesis”) (mouse aortic rings [1]; wild type rings) was “did not affect; also recorded: no effect”.

For `CC1(C)[C@@H](OC(=O)CCC(=O)O)CC[C@]2(C)[C@H]3C(=O)C=C4[C@@H]5C[C@@](C)(C(=O)O)CC[C@]5(C)CC[C@@]4(C)[C@]3(C)CC[C@@H]12` [carbenoxolone], the “effect … of 11-dehydrocorticosterone” value (mouse aortic rings [3]) was “prevented”, the “effect on angiogenesis in aortic rings at high concentration” value (mouse aortic rings [1]; wild type rings, 10^−4 M) was “abolished angiogenesis” and the “effect … of corticosterone” value (mouse aortic rings [1]; wild type rings) was “did not potentiate; also recorded: did not influence”. The “effect … of corticosterone” value (mouse aortic rings [1]; [6]) was “no effect”, the “direct effect on angiogenesis” value (mouse aortic rings [1]; wild type rings) was “no direct effect” and the “direct effect on angiogenesis” value (mouse aortic rings [1]; [6]) was “no effect”.

With `C[C@]12C[C@H](O)[C@H]3[C@@H](CCC4=CC(=O)CC[C@@]43C)[C@@H]1CC[C@@H]2C(=O)CO` [corticosterone] the “effect of glucocorticoid” value (mouse aortic rings [1]; [4]) was “inhibited to a similar degree; also recorded: not different between strains” and the “effect of glucocorticoid” value (mouse aortic rings [1]; [5]) was “inhibited angiogenesis”.

In the case of `C[C@]12CCC(=O)C=C1CC[C@@H]1[C@@H]2[C@@H](O)C[C@@]2(C)[C@H]1CC[C@]2(O)C(=O)CO` [cortisol], the “effect of steroid-impregnated sponge on angiogenesis in vivo” value (from here on “effect of steroid-impregnated sponge”) ([2]; 11βHSD-1 −/− mice) is reported as “inhibited angiogenesis to a similar degree”, the “effect of steroid-impregnated sponge” value ([2]; 11βHSD-1 −/− mice, listed as Cortisol) is reported as “inhibited angiogenesis” and the “effect of steroid-impregnated sponge” value ([2]; wild type C57B16 mice) is reported as “inhibited angiogenesis”. The concentration at 20 days (in vivo; 11bHSD-1 −/−, contralateral placebo treated sponge) was 135 ± 46 ng/g, the concentration at 20 days (in vivo; 11bHSD-1 −/−, ipsilateral steroid treated sponge) was 3780 ± 1700 ng/g and the “sponge cortisol concentrations, in words” value (in vivo) was “similar”. It also gave a concentration at 20 days (in vivo; wild type, contralateral placebo treated sponge) of 161 ± 18 ng/g and a concentration at 20 days (in vivo; wild type, ipsilateral steroid treated sponge) of 4270 ± 186 ng/g.

For `C[C@]12CCC(=O)C=C1CC[C@@H]1[C@@H]2C(=O)C[C@@]2(C)[C@H]1CC[C@]2(O)C(=O)CO` [cortisone], the “effect of steroid-impregnated sponge” value ([2]; 11βHSD-1 −/− mice) was “did not inhibit angiogenesis; also recorded: only in wild type mice”, the “effect of steroid-impregnated sponge” value ([2]; wild type C57B16 mice) was “inhibited angiogenesis” and the “sponge cortisol concentrations after impregnation with cortisone compared with cortisol, in words” value (in vivo) was “lower”. The “sponge cortisol concentrations, in words” value (in vivo) was “did not elevate”.

For `CC(=O)S[C@@H]1CC2=CC(=O)CC[C@]2(C)[C@H]2CC[C@@]3(C)[C@@H](CC[C@@]34CCC(=O)O4)[C@H]12` [spironolactone], the “effect … of 11-dehydrocorticosterone” value (mouse aortic rings [3]) was “no effect”, the “effect … of corticosterone” value (mouse aortic rings [1]; wild type rings) was “no effect” and the “direct effect on angiogenesis” value (mouse aortic rings [1]; wild type rings) was “no effect”.
